Patent US20260315464A1, “COMPOSITIONS, METHODS, AND SYSTEMS FOR MODULATING SPLICING OF MSH3” (REVIR THERAPEUTICS, INC., priority 2023, published 2026)

Key:
MSH3 Exon 21A = experiment: Splicing and RNA expression changes, poison exon 21A (FIGS. 6-8); assay type: cell-based; conditions: FIG. 8; for total RNA: e.g., due to NMD
Excerpt: (§1) Poison exons were identified in endogenous MSH3 genome by employing a proprietary bioinformatics pipeline screening for cryptic exons in combination with examining poison exon candidates that could be regulated by an agent described herein or by nonsense mediated decay (NMD) using cycloheximide. FIG. 6 and FIG. 7 illustrate identification of Exon 21A, but not Exon 21B, as a poison exon that could be regulated by the agent described herein. FIG. 8 and FIG. 9 illustrate mutations that can be introduced into the poison exon (Exon 21A and Exon 14A_1 or Exon 14A_2, respectively), where the mutated nucleotide bases (e.g., CAG) could further enhance the suppression of the MSH3 expression. Such mutations can be utilized as a method or a system for screening additional candidate agents. FIG. 8 illustrates splicing and RNA expression changes for targets regulated by an agent described herein. […] FIG. 8 also illustrates how mutating a poison exon (e.g., from ATA to CAG) increased percentage of splice inclusion of Exon 21A from 0.13 to 0.98. Such mutations can be useful for designing a method or a system for screening additional agents for modulating splicing in of poison exon into a mRNA (e.g., as shown in FIG. 10). FIG. 9 illustrates splicing and RNA expression changes for targets regulated by an agent described herein. […] FIG. 9 also illustrates how mutating the poison exon (e.g., from TGA to CAG) increased percentage of splice inclusion of Exon 14A_1 from 0.00 to 0.59. Such mutations can be useful for designing a method or a system for screening additional agents for modulating splicing in of poison exon into a mRNA (e.g., as shown in FIG. 10). […] FIG. 10A illustrates engineered minigene donor (e.g., by mutating endogenous trinucleotides to CAG as shown in FIG. 8 and FIG. 9) for driving expression of a luciferase reporter gene. FIG. 10B illustrates minigene PCR showing the presence of the poison exon comprising the CAG mutation. […] FIG. 10C illustrates increased luciferase signal generated by the presence of the minigene comprising the poison exon comprising the CAG mutation.

[1] = tested on: MSH3 Exon 14A_1 or Exon 14A_2; experiment: Splicing and RNA expression changes, poison exon 14A_1 or 14A_2 (FIG. 9); assay type: cell-based; conditions: for total RNA: e.g., due to NMD
Excerpt: as §1

MSH3 poison exon 14A [2] = experiment: RT-PCR of MSH3 exon 13/PE14A and PE14A/exon 14 amplicons in cynomolgus monkey fibroblasts (FIG. 13); assay type: cell-based; conditions: 24 hours
Description: (§2) To further validate MSH3 poison exon 14A, RT-PCR was used to analyze MSH3 exon 13/poison exon 14A, and poison exon 14A/exon 14 amplicons. Briefly, Cynomolgus monkey primary dermal fibroblasts (Cellosaurus) and HEK293 cells (ATCC) were cultured in DMEM (ThermoFisher Scientific) supplemented with 10% fetal bovine serum (Avantor) and 0.1 μg/mL Primocin (Invivogen). All cell lines were maintained at sub-confluency and grown in a humidified incubator at 37° C. with 5% CO2. RNA was purified using Qiashredder and RNeasy kits (Qiagen), cDNA was prepared with MultiScribe Reverse Transcriptase (ThermoFisher Scientific) and PCR with GoTaq Green Master Mix (Promega). Primers (IDT) used were the following: Fwd-Exon 13 (5′-[…] (SEQ ID NO: 20)), Rev-PE14A (5′-[…] (SEQ ID NO: 21)), Fwd-PE14A (5′-[…] (SEQ ID NO: 22)), Rev-Exon 14 (5′-[…] (SEQ ID NO: 23)), Fwd-GAPDH (5′-[…] (SEQ ID NO: 24)), Rev-GAPDH (5′-ACCCGTTGACTCCGACCT (SEQ ID NO: 25)).

MSH3 exons 20/21 mRNA = experiment: qPCR of total MSH3 exons 20/21 in HEK293 WT and PE14A CAG clones (FIG. 12A); assay type: cell-based, human; conditions: HEK293 wild-type clones, 24 hours
Description: (§3) In this example, MSH3 poison exon 14A (PE5) and poison exon 21A (PE4) were validated. Briefly, HEK293 parental and clonal cells (Synthego) were cultured in DMEM (ThermoFisher Scientific) supplemented with 10% fetal bovine serum (Avantor) and 0.1 μg/mL Primocin (Invivogen). All cell lines were maintained at sub-confluency and grown in a humidified incubator at 37° C. with 5% CO2. HEK293 clonal cells were generated by Synthego's proprietary CRISPR methods to replace PE14A 5′ splice site with a strong donor (TGAGTTG>CAGGTTA) at the endogenous locus. Two clones (C3 and H2) were isolated to express 99-100% of the desired knock-in mutation. Two clones were generated from the parental line HEK293 without any editing (wild-type WTl3 and WT7) to be used as controls. […] RNA, cDNA and qPCR was prepared using TaqMan Cells-to-CT Express kit (ThermoFisher Scientific). Taqman assays (ThermoFisher Scientific) were used for quantification of total MSH3 exons 13/14 (cat #4351372, ID #: Hs00988993_ml), total MSH3 exons 20/21 (cat #4351372, ID #: Hs00989000_ml), exon 13/PE14A (Fwd: 5′-[…] (SEQ ID NO: 14); Rev: 5′-[…] (SEQ ID NO: 15); Probe: 5′-[…] (SEQ ID NO: 16)) and exon 20/PE21A (Fwd: 5′-[…] (SEQ ID NO: 17); Rev: 5′-[…] (SEQ ID NO: 18); Probe: 5′-[…] (SEQ ID NO: 19)) mRNA expression. […] Protein concentrations were determined by Rapid Gold BCA (ThermoFisher Scientific). […]

[3] = tested on: MSH3 exon 13/PE14A mRNA (PE5); experiment: qPCR of MSH3 PE5 (exon 13/PE14A) in HEK293 WT and PE14A CAG clones (FIG. 11B); assay type: cell-based, human
Description: as §3

MSH3 poison exon 14A [4] = experiment: RT-PCR of MSH3 exon 13/PE14A and PE14A/exon 14 amplicons in HEK293 cells (FIG. 13); assay type: cell-based, human; conditions: 24 hours
Description: as §2

MSH3 exons 13/14 mRNA = experiment: qPCR of total MSH3 exons 13/14 in HEK293 WT and PE14A CAG clones (FIG. 11A); assay type: cell-based, human
Description: as §3

MSH3 protein = experiment: Western blot of MSH3 protein in HEK293 WT and PE5 CAG clones (FIG. 12C); assay type: cell-based, human
Description: as §3

[5] = tested on: MSH3 exon 20/PE21A mRNA (PE4); experiment: qPCR of MSH3 PE4 (exon 20/PE21A) in HEK293 WT and PE14A CAG clones (FIG. 12B); assay type: cell-based, human; conditions: HEK293 wild-type clones, 24 hours
Description: as §3

MSH3 = experiment: QPCR assay for levels of MSH3 upon compound treatment in HEK293T or AD293 cells (fold-change of MSH3 transcript, EC50 of MSH3 downregulation; total MSH3 exons 13/14, exons 20/21; Table 8); assay type: cell-based; conditions: Homo sapiens, fold-change of the MSH3 transcript, normalized to GAPDH
Procedure, shortened: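 HEK293T or AD293 cells were treated at 1 μM and […]; RNA-to-cDNA qPCR used TaqMan assays for total MSH3 (exons 13/14, exons 20/21) and poison-exon junctions exon 13/PE14A and exon 20/PE21A. Transcript levels were normalized to GAPDH.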

[6] = HEK293 wild-type clones, 24 hours

`CN(c1ccc(N2Cc3cnc(-c4cnn(C)c4)cc3C2=O)nn1)C1CCNCC1` [Compound 1, 2-(6-(methyl(piperidin-4-yl)amino)pyridazin-3-yl)-6-(1-methyl-1H-pyrazol-4-yl)-2,3-dihydro-1H-pyrrolo[3,4-c]pyridin-1-one] was tested, and the “poison exon expression (Exon 21A)” value (MSH3 Exon 21A) was “increased poison exon expression”, the “total RNA” value (MSH3 Exon 21A) was “decreased total RNA” and the “poison exon expression (Exon 14A_1 or Exon 14A_2)” value [1] was “increased poison exon expression”. For the same compound, the “total RNA” value [1] was “decreased total RNA”.
With `C[C@@H]1C[C@@H]([C@H](O)CC2CC(=O)NC(=O)C2)C(=O)[C@@H](C)C1` [CHX, cycloheximide, reference compound] the “poison exon expression (Exon 21A)” value (MSH3 Exon 21A) was “increased poison exon expression”, the “total RNA” value (MSH3 Exon 21A) was “decreased total RNA” and the “poison exon expression (Exon 14A_1 or Exon 14A_2)” value [1] was “increased poison exon expression”. The “total RNA” value [1] was “decreased total RNA”.
`Cc1nn(C)cc1-c1cc(F)c2c(c1)C(=O)N(c1ccc(N(C)[C@H]3C[C@]4(C)CC[C@](C)(C3)N4)nn1)C2` [Compound A] was tested, and the 13/PE14A amplicon (MSH3 poison exon 14A [2]) was “increase”, the PE14A/14 amplicon (MSH3 poison exon 14A [2]) was “increase” and the “MSH3 expression (total, exons 20/21)” value (MSH3 exons 20/21 mRNA) was “lowering MSH3 expression”. For the same compound, the PE5-specific expression [3, 6] was “increasing PE5-specific expression”, the “further increase of PE5” value ([3]; PE5 CAG clones C3 and H2, 24 hours, starting at 0.3-1 μM) was 20-30% and the 13/PE14A amplicon (MSH3 poison exon 14A [4]) was “increase”. The PE14A/14 amplicon (MSH3 poison exon 14A [4]) was “increase”, the “MSH3 expression (total, exons 13/14)” value (MSH3 exons 13/14 mRNA; [6]) was “lowering MSH3 expression” and the “MSH3 expression (total, exons 13/14)” value (MSH3 exons 13/14 mRNA; PE5 CAG clones C3 and H2, 24 hours) was “No further decrease”. For the same compound, the MSH3 protein levels (MSH3 protein; PE5 CAG clones) was “decreased in MSH3 levels”, the MSH3 protein levels (MSH3 protein; wild-type clones) was “decreased in MSH3 levels” and the PE4-specific expression [5] was “increasing PE4-specific expression”.
In the case of `Cn1nc(Cl)c(-c2cc(F)c3c(c2)C(=O)N(c2ccc(N4CC5CCC(C4)NC5)nn2)C3)n1` (stereo not shown) [Compound 645], the mrna remaining at 1 µM (MSH3; 1 μM compound) is reported as 87% and the mrna remaining at 10 µM (MSH3; 10 μM compound) is reported as 104%.
